Results reported in paper PMC3694885, “Activity of Bradykinin B2 Receptor Is Regulated by Long-Chain Polyunsaturated Fatty Acids” (PLoS ONE, 2013).

Biological target: T1, bradykinin B2 receptor (B2R) (Homo sapiens, UniProt P30411)
T1 construct: gene BDKRB2; B2R transfected in HEK293 cells
T1 sequence (P30411 1-391): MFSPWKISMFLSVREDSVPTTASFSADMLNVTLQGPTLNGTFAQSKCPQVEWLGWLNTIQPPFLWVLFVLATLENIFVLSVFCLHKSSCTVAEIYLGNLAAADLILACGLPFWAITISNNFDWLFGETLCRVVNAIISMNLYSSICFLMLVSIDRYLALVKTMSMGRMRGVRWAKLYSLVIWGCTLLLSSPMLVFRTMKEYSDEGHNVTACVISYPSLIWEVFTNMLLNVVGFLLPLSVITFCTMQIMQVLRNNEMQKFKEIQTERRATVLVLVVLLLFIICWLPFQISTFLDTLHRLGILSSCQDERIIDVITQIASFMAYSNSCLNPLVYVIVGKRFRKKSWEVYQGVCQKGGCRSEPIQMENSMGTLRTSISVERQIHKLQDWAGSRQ
Test: B2R-dependent ERK phosphorylation in transfected HEK293, blocked by the B2R antagonist HOE-140
Format: cell-based

**Q.** CC/C=C\C/C=C\C/C=C\C/C=C\C/C=C\C/C=C\CCC(=O)O [DHA, docosahexaenoic acid] was tested. Which “B2R-dependent ERK phosphorylation in transfected HEK293, blocked by the B2R anta” value did it give?
**A.** The value was “EPA or DHA dependent ERK phosphorylation was inhibited by the selective B2R antagonist”.
